Data as given in US9168275B2 (priority 2000, dated 2015).

Experiments:
tetanus toxin = tetanus toxin (Clostridium tetani, UniProt P04958); conditions: cited from earlier work
[1] = system: person with chronic diarrhea and autism; assay type: in vivo, human
Protocol: Diarrhea began after three 10 day courses of broad spectrum antimicrobials prescribed over a six week period for “chronic otitis media.” There was no blood or pus in the stool nor associated constitutional symptoms. There was profound behavioral and developmental deterioration, along with emergence of severe autistic features.
A 12 week therapeutic trial of oral vancomycin (125 mg QID) was begun with expanded observations by a pediatric neuropsychologist pre- and post-treatment. At baseline, the child was not on a special diet nor was […] taking any vitamin supplements. Three days after initiation of the vancomycin therapy, a hyperactivity pattern emerged which lasted for four days. […] became affectionate and relatively calm. […] promptly achieved toilet training and increased vocabulary. Follow-up behavioral observations after eight weeks of therapy noted an increase in on-task performance, compliance with parental requests, awareness of environmental surroundings, and persistence when engaging in positive activities. […] The child's educational therapies remained unchanged for both six months before and during the vancomycin trial. […] Though still improved over baseline, […] eventually lost most of the initial gains.

[2] = in vivo, po; cited from earlier work
[3] = system: children with regressive onset autism; conditions: in vivo
clostridia = conditions: cited from earlier work
Bacteroides = conditions: cited from earlier work

tetanus toxin, sequence (P04958 whole entry, looked up): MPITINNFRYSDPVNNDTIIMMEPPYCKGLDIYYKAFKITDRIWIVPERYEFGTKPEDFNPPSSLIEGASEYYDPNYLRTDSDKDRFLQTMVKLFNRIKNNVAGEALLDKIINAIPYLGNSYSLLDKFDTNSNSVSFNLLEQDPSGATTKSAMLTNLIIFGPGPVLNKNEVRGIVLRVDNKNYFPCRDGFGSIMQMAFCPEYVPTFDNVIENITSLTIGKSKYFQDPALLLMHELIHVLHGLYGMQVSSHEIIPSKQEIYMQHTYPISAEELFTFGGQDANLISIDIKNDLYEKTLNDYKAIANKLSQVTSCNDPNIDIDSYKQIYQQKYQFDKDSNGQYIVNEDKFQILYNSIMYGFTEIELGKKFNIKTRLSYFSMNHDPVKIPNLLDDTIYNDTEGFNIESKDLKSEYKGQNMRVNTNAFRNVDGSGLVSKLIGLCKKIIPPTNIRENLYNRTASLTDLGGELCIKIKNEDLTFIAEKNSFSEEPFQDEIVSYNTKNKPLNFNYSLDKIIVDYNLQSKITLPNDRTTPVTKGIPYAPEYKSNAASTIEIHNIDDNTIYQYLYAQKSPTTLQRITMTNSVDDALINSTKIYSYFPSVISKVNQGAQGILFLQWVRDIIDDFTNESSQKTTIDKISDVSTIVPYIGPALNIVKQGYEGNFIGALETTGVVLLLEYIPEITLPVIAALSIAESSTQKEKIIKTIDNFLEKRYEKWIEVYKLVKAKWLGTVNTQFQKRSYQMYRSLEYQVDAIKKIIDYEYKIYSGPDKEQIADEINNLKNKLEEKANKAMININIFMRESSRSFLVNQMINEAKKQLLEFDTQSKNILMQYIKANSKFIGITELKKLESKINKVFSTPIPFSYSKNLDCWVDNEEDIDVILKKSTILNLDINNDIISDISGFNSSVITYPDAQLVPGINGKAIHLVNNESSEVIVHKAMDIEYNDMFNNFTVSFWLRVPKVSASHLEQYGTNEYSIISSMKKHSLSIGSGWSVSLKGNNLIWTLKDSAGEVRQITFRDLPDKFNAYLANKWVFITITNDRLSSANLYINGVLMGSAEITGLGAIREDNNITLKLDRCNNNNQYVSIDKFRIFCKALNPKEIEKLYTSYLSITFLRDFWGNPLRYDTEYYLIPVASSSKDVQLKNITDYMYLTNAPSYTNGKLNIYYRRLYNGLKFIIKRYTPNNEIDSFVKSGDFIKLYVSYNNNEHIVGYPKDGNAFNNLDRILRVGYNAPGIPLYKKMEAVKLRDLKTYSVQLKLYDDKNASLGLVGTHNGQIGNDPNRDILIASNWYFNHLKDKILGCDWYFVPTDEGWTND

Compound | Effect on tetanus toxin in vitro (tetanus toxin) | Repetitive and self-stimulatory behaviors ([1]; after eight weeks of therapy) | Course shortly after discontinuation ([1]; after vancomycin discontinuation) | Clinical response ([1]; oral vancomycin 125 mg QID, 12 weeks) | Concentration in the intestines [2] | Analog rating scale, improvement in behavior: Wilcoxon Signed Ranks Z [3] | Analog rating scale, improvement in behavior: p [3] | Analog rating scale, improvement in communication: Wilcoxon Signed Ranks Z [3] | Analog rating scale, improvement in communication: p [3] | Analog ratings at long-term follow-up [3] | Basic blood, stool and urine tests [3] | Brief (1-4 days) period of hyperactivity: children affected [3] | Day of marked lethargy: subjects affected [3] | Blinded assessment of coded, paired videotapes: possible deterioration ([3]; po) | Activity against clostridia (clostridia) | Activity against Bacteroides (Bacteroides)
C[C@H](CS)C(=O)N1CCC[C@H]1C(=O)O [Captopril] | inactivates | – | – | – | – | – | – | – | – | – | – | – | – | – | – | –
CN[C@H](CC(C)C)C(=O)N[C@H]1C(=O)N[C@@H](CC(N)=O)C(=O)N[C@H]2C(=O)N[C@H]3C(=O)N[C@H](C(=O)N[C@H](C(=O)O)c4cc(O)cc(O)c4-c4cc3ccc4O)[C@H](O)c3ccc(c(Cl)c3)Oc3cc2cc(c3O[C@@H]2O[C@H](CO)[C@@H](O)[C@H](O)[C@H]2O[C@H]2C[C@](C)(N)[C@H](O)[C@H](C)O2)Oc2ccc(cc2Cl)[C@H]1O [vancomycin] | – | significant reduction | behavioral deterioration | rapid and dramatic clinical improvement | high concentration | −2.9 | 0.003 | 2.9 | 0.003 | returned towards baseline | unremarkable | six | One | one | effective | effective
CC1(C)S[C@@H]2[C@H](NC(=O)[C@H](N)c3ccccc3)C(=O)N2[C@H]1C(=O)O [ampicillin] | – | – | – | – | – | – | – | – | – | – | – | – | – | – | active | –
